Measurements taken from ChEMBL document CHEMBL2074482 (J Pharmacol Sci, 2004).

Experiments:
[1] = target: T1, Organic anion transporter 3 (Rattus norvegicus, UniProt Q9R1U7); assay: TP_TRANSPORTER: inhibition of ES uptake (ES: 50nM) in rOAT3-expressing S2 cells; assay type: functional, cell-based
T1 sequence (Q9R1U7 whole entry): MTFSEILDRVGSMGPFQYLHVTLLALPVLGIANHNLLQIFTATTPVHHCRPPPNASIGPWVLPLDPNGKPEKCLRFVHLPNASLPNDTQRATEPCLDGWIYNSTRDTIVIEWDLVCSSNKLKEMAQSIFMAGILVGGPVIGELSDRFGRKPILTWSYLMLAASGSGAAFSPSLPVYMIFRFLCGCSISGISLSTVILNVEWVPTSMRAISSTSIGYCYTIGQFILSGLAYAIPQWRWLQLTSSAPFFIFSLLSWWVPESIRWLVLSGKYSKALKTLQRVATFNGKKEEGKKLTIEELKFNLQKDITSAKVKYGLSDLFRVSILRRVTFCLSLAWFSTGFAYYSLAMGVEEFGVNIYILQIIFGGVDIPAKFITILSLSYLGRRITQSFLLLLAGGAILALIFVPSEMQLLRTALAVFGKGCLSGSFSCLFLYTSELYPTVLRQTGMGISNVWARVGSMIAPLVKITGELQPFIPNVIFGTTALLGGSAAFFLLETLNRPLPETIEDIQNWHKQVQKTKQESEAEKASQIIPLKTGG

[2] = target: T2, Organic anion transporter 3 (Homo sapiens, UniProt Q8TCC7); assay: TP_TRANSPORTER: inhibition of ES uptake (ES: 50nM) in hOAT3-expressing S2 cells; assay type: functional, cell-based
T2 sequence (Q8TCC7 whole entry): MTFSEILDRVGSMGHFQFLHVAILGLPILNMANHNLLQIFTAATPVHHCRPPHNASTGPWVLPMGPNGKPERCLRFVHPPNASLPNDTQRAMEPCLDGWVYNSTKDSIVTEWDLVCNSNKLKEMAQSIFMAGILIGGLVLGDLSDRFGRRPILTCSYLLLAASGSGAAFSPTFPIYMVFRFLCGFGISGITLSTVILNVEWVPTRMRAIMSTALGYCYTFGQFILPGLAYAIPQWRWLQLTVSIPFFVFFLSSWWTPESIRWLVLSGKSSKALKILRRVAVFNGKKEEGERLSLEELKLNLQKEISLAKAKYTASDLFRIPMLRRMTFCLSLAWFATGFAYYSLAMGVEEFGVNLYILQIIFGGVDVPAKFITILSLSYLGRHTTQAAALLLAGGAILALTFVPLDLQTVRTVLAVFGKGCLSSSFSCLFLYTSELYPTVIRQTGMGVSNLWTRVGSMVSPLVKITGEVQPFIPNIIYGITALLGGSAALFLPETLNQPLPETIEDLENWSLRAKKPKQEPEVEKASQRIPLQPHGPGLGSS

[3] = target: T3, Solute carrier family 22 member 11 (Homo sapiens, UniProt Q9NSA0); assay: TP_TRANSPORTER: inhibition of ES uptake (ES: 50nM) in hOAT4-expressing S2 cells; assay type: functional, cell-based
T3 sequence (Q9NSA0 whole entry): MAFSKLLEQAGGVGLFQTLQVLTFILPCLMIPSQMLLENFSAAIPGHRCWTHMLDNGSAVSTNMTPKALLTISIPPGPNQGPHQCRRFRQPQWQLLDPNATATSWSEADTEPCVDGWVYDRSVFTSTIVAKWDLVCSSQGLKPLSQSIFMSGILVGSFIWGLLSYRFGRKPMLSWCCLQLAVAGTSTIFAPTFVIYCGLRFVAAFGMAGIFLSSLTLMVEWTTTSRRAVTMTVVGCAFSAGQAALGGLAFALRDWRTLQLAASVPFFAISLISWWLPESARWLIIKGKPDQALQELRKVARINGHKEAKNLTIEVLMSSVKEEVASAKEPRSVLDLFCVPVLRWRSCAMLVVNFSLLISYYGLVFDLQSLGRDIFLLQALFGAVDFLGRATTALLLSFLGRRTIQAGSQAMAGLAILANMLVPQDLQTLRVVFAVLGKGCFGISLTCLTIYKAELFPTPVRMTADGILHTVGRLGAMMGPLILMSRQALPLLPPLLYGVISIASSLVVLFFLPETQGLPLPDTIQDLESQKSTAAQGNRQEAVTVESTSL

[4] = target: T4, Solute carrier family 22 member 6 (Rattus norvegicus, UniProt O35956)
T4 sequence (O35956 whole entry): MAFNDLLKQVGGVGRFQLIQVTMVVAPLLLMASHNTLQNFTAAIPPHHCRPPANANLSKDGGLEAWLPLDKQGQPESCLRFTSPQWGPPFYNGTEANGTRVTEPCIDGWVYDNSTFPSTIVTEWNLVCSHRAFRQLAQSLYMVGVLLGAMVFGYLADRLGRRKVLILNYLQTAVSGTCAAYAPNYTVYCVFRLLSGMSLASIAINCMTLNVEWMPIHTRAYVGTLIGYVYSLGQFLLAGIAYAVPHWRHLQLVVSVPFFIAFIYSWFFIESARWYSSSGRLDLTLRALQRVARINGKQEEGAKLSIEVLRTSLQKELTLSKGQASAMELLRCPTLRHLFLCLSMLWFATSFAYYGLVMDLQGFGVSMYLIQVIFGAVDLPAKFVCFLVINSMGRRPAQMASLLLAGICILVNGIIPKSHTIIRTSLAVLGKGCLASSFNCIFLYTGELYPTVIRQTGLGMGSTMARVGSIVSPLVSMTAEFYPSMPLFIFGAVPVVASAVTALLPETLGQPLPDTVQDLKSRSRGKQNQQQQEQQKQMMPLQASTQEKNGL

[5] = target: T5, Solute carrier family 22 member 7 (Rattus norvegicus, UniProt Q5RLM2); assay: TP_TRANSPORTER: inhibition of PGF2alpha uptake (PGF2: 50nM) in rOAT2-expressing S2 cells; assay type: functional, cell-based
T5 sequence (Q5RLM2 whole entry): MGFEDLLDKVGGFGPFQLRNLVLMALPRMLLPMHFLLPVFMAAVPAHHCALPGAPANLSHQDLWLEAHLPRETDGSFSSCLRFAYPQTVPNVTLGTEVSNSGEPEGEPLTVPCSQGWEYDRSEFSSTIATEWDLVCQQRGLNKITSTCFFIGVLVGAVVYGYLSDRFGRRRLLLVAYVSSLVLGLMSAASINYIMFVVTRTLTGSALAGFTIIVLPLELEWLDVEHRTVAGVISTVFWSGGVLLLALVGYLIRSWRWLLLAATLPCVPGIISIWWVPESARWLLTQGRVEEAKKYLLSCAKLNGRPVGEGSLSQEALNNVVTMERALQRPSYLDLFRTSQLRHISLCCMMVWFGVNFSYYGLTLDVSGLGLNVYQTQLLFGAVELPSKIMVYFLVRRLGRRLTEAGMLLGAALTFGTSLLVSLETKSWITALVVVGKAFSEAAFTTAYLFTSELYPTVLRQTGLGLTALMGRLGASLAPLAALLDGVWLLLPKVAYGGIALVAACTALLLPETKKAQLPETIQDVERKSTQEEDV

[6] = target: T6, Solute carrier family 22 member 7 (Homo sapiens, UniProt Q9Y694); assay: TP_TRANSPORTER: inhibition of PGF2alpha uptake (PGF2: 50nM) in hOAT2-expressing S2 cells; assay type: functional, cell-based
T6 sequence (Q9Y694 whole entry): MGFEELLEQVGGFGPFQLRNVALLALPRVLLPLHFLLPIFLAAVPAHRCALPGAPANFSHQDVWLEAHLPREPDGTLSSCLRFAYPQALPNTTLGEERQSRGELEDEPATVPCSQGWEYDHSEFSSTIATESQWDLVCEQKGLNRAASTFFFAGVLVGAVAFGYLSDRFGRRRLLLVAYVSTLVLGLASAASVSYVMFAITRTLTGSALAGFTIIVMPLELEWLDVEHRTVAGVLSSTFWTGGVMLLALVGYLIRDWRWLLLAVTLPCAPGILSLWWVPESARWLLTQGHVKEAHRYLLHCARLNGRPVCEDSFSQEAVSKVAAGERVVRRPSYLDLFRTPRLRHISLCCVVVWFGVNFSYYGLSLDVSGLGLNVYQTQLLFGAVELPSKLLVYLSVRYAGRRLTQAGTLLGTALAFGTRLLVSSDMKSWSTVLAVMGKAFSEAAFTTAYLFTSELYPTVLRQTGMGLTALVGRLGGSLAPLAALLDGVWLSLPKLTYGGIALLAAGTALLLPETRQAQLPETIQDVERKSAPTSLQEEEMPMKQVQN

Row | Compound | IC50 [1] | IC50 [2] | IC50 [3] | IC50 [5] | IC50 [6] | IC50 [4]
1 | CC1(C)C[C@@H]1C(=O)N/C(=C\CCCCSC[C@H](N)C(=O)O)C(=O)O [CILASTATIN] | 742 µM | 249 µM |  |  |  | 
2 | CN/C(=N/CCSCc1nc[nH]c1C)NC#N [CIMETIDINE] | 166 µM | 92.4 µM | > 2000 µM |  |  | > 2000 µM

Compounds with a lower IC50 [1], results first:

Row | IC50 [1] | IC50 [2] | IC50 [3] | IC50 [5] | IC50 [6] | Compound | IC50 [4]
3 | 47.5 µM | 9.92 µM | 483 µM |  |  | O=C(O)CCNC(=O)c1ccccc1 [BETAMIPRON] | 
4 | 15.6 µM | 13.7 µM | 591 µM | 449 µM | 352 µM | CC[C@H](C)C(=O)O[C@H]1C[C@H](O)C=C2C=C[C@H](C)[C@H](CC[C@@H](O)C[C@@H](O)CC(=O)O)[C@H]21 [PRAVASTATIN] | 
5 | 6.03 µM |  |  | 977 µM | 668 µM | CCCN(CCC)S(=O)(=O)c1ccc(C(=O)O)cc1 [PROBENECID] | 
